Values quoted from earlier work as cited in US20210220286A1, “PHARMACEUTICAL COMPOSITION COMPRISING AMORPHOUS SUNITINIB” (SYNTHON B.V., priority 2018, published 2021).

Details: WO03016305, cited from earlier work; for stability of polymorphic form: ambient conditions

| SMILES | stability of polymorphic form | hygroscopicity of polymorphic form | solubility of polymorphic form (compared with form I) |
| --- | --- | --- | --- |
| CCN(CC)CCNC(=O)c1c(C)[nH]c(/C=C2\C(=O)Nc3ccc(F)cc32)c1C [Form I, sunitinib L-malate] | most stable form |  |  |
| CCN(CC)CCNC(=O)c1c(C)[nH]c(/C=C2\C(=O)Nc3ccc(F)cc32)c1C [Form II, sunitinib L-malate] | less stable | hygroscopic | more soluble |
